Measurements taken from patent US20020137929A1, “1 - (3-heterocyclylphenyl) isothiourea, -isourea, -guanidine and -amidine herbicidal agents” (Intellectual Property Department, BASF Aktiengesellschaft, priority 1998, published 2002).

Key:
GALAP (Galium) [1] = test: Preemergence herbicidal evaluation; format: in vivo, Galium aparine; details: rated 4-5 weeks after treatment; for GALAP rating: preemergence, 0-9 scale
Summary of the method: (§1)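 Test compound, dissolved in aqueous acetone, was sprayed over planted soil cups at an equivalent of about 0.0156 to 0.500 kg/ha; seeds had been mixed with potting soil. Greenhouse growth followed, with visual 0-9 scoring of injury at four to five weeks.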

CYPSE (Flatsedge) [2] = test: Postemergence weed control under flooded paddy conditions; format: in vivo, Cyperus serotinus; details: postemergence weeds, rated 3 to 4 weeks after treatment
Summary of the method: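 Herbicidal effect is judged by eye on a 0–9 scale versus control, 3–4 weeks after dosing. Dosing is into flood water kept 1.5–3 cm over the soil, at about 0.0313–0.500 kg/ha in aqueous/acetone 50/50 v/v, on 3–5 cm weeds and 1.5–2.5-leaf rice seedlings.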

CASOB (Sicklepod) [3] = test: Postemergence herbicidal evaluation; format: in vivo, Cassia obtusifolia; details: postemergence
Summary of the method: (§2)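 Compound is applied as a foliar spray to seedlings about two weeks old, formulated in equal parts acetone and water with 0.5% TWEEN 20 and delivered at 40 psi to give about 0.0156–0.500 kg per hectare. Injury is rated visually 0–9 after four to five weeks.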

CYPSE (Flatsedge) [4] = test: Preemergence weed control under flooded paddy conditions; format: in vivo, Cyperus serotinus; details: rated 3-4 weeks after treatment
Summary of the method: (§3)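 First, seeds or propagules go into the top 0.5 cm of silt loam; next, water is held 1.5 to 3 cm over the soil; then compound (50/50 acetone/water) is pipetted into it at about 0.0313 to 0.500 kg/ha; finally plants are rated visually 0-9 after three to four weeks.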

CYPIR (Rice Flatsedge) = test: as above; format: in vivo, Cyperus iria; details: rated 3-4 weeks after treatment
Summary of the method: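 Visual injury scored 0-9 against control three to four weeks post-treatment, greenhouse-grown. Application: acetone/water (50/50) solutions dosed directly into flood water (1.5-3 cm over silt loam, planted top 0.5 cm), roughly 0.0313 to 0.500 kg/ha active ingredient.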

[5] = system: GLXMAW (Soybean, Williams); test: Postemergence herbicidal evaluation; format: in vivo, Glycine max, (L.) Merr. cv Williams; details: postemergence
Summary of the method: as §2

ORYSAT (Rice, Tebonnet) = test: Postemergence herbicidal evaluation; format: in vivo, Oryza sativa, (L.) Tebonnet; details: postemergence
Summary of the method: as §2

GALAP (Galium) [6] = test: Postemergence herbicidal evaluation; format: in vivo, Galium aparine; details: postemergence
Summary of the method: as §2

[7] = system: CHEAL (Lambsquarters, Common); test: Postemergence herbicidal evaluation; format: in vivo, Chenopodium album; details: postemergence
Summary of the method: as §2

SETVI (Foxtail, Green) = test: Postemergence herbicidal evaluation; format: in vivo, Setaria viridis; details: postemergence
Summary of the method: as §2

ZEAMX (Corn, Field) = test: Preemergence herbicidal evaluation; format: in vivo, Zea mays; details: rated 4-5 weeks after treatment; for ZEAMX rating: preemergence, 0-9 scale
Summary of the method: as §1

CASOB (Sicklepod) [8] = test: Preemergence herbicidal evaluation; format: in vivo, Cassia obtusifolia; details: rated 4-5 weeks after treatment; for CASOB rating: preemergence, 0-9 scale
Summary of the method: as §1

[9] = system: SAGPY (Arrowhead (Pygmaea)); test: Preemergence weed control under flooded paddy conditions; format: in vivo, Sagittaria pygmaea; details: rated 3-4 weeks after treatment
Summary of the method: as §3

ECHCG (Barnyardgrass) = test: Postemergence herbicidal evaluation; format: in vivo, Echinochloa crus-galli; details: postemergence
Summary of the method: as §2

AMBEL (Ragweed, Common) = test: Postemergence herbicidal evaluation; format: in vivo, Ambrosia artemisifolia; details: postemergence
Summary of the method: as §2

## CCS(=O)(=O)NC(=O)CC1SC(=Nc2cc(-n3c(=O)cc(C(F)(F)F)n(C)c3=O)c(F)cc2Cl)N(C)C1=O (stereo not drawn) [Compound 105, 2-{{2-Chloro-5-[3,6-dihydro-3-methyl-2,6-dioxo-4-(trifluoromethyl)-1(2H)-pyrimidinyl]-4-fluorophenyl}imino}-N-(ethylsulfonyl)-3-methyl-4-oxo-5-thiazolidineacetamide]
GALAP (Galium) [1]; 0.2500 kg/ha
  GALAP rating: 3.0
GALAP (Galium) [1]; 0.5000 kg/ha
  GALAP rating: 7.0
CYPSE (Flatsedge) [2]; Rate 0.0313 kg/ha
  Herbicidal rating CYPSE: 2.0
CYPSE (Flatsedge) [2]; Rate 0.0625 kg/ha
  Herbicidal rating CYPSE: 5.0
CYPSE (Flatsedge) [2]; Rate 0.1250 kg/ha
  Herbicidal rating CYPSE: 7.0
CYPSE (Flatsedge) [2]; Rate 0.2500 kg/ha
  Herbicidal rating CYPSE: 9.0
CASOB (Sicklepod) [3]; rate 0.0156 kg/ha
  herbicidal rating CASOB: 0.0
CASOB (Sicklepod) [3]; rate 0.0313 kg/ha
  herbicidal rating CASOB: 0.0
CASOB (Sicklepod) [3]; rate 0.0625 kg/ha
  herbicidal rating CASOB: 0.0
CASOB (Sicklepod) [3]; rate 0.1250 kg/ha
  herbicidal rating CASOB: 1.0
CYPSE (Flatsedge) [4]; 0.0313 kg/ha
  CYPSE herbicidal effect rating: 2.0
CYPSE (Flatsedge) [4]; 0.0625 kg/ha
  CYPSE herbicidal effect rating: 5.0
CYPSE (Flatsedge) [4]; 0.1250 kg/ha
  CYPSE herbicidal effect rating: 7.0
CYPSE (Flatsedge) [4]; 0.2500 kg/ha
  CYPSE herbicidal effect rating: 9.0
CYPIR (Rice Flatsedge); 0.0313 kg/ha
  CYPIR herbicidal effect rating: 5.0
CYPIR (Rice Flatsedge); 0.0625 kg/ha
  CYPIR herbicidal effect rating: 7.0
CYPIR (Rice Flatsedge); 0.1250 kg/ha
  CYPIR herbicidal effect rating: 7.0
CYPIR (Rice Flatsedge); 0.2500 kg/ha
  CYPIR herbicidal effect rating: 9.0
[5]; rate 0.0156 kg/ha
  herbicidal rating GLXMAW: 3.0
[5]; rate 0.0313 kg/ha
  herbicidal rating GLXMAW: 4.5
[5]; rate 0.0625 kg/ha
  herbicidal rating GLXMAW: 6.5
[5]; rate 0.1250 kg/ha
  herbicidal rating GLXMAW: 7.5
ORYSAT (Rice, Tebonnet); rate 0.0156 kg/ha
  herbicidal rating ORYSAT: 0.0
ORYSAT (Rice, Tebonnet); rate 0.0313 kg/ha
  herbicidal rating ORYSAT: 0.0
ORYSAT (Rice, Tebonnet); rate 0.0625 kg/ha
  herbicidal rating ORYSAT: 0.0
ORYSAT (Rice, Tebonnet); rate 0.1250 kg/ha
  herbicidal rating ORYSAT: 2.0
GALAP (Galium) [6]; rate 0.0156 kg/ha
  herbicidal rating GALAP: 0.0
GALAP (Galium) [6]; rate 0.0313 kg/ha
  herbicidal rating GALAP: 0.0
GALAP (Galium) [6]; rate 0.0625 kg/ha
  herbicidal rating GALAP: 1.0
GALAP (Galium) [6]; rate 0.1250 kg/ha
  herbicidal rating GALAP: 2.0
[7]; rate 0.0156 kg/ha
  herbicidal rating CHEAL: 0.0
[7]; rate 0.0313 kg/ha
  herbicidal rating CHEAL: 0.0
[7]; rate 0.0625 kg/ha
  herbicidal rating CHEAL: 2.0
[7]; rate 0.1250 kg/ha
  herbicidal rating CHEAL: 2.0
SETVI (Foxtail, Green); rate 0.0156 kg/ha
  herbicidal rating SETVI: 0.0
SETVI (Foxtail, Green); rate 0.0313 kg/ha
  herbicidal rating SETVI: 0.0
SETVI (Foxtail, Green); rate 0.0625 kg/ha
  herbicidal rating SETVI: 2.0
SETVI (Foxtail, Green); rate 0.1250 kg/ha
  herbicidal rating SETVI: 5.0
ZEAMX (Corn, Field); 0.1250 kg/ha
  ZEAMX rating: 0.0
ZEAMX (Corn, Field); 0.2500 kg/ha
  ZEAMX rating: 1.0
ZEAMX (Corn, Field); 0.5000 kg/ha
  ZEAMX rating: 2.0
CASOB (Sicklepod) [8]; 0.1250 kg/ha
  CASOB rating: 0.0
CASOB (Sicklepod) [8]; 0.2500 kg/ha
  CASOB rating: 0.0
CASOB (Sicklepod) [8]; 0.5000 kg/ha
  CASOB rating: 0.0
[9]; 0.0313 kg/ha
  SAGPY herbicidal effect rating: 3.0
[9]; 0.0625 kg/ha
  SAGPY herbicidal effect rating: 5.0
[9]; 0.1250 kg/ha
  SAGPY herbicidal effect rating: 5.0
[9]; 0.2500 kg/ha
  SAGPY herbicidal effect rating: 7.0
ECHCG (Barnyardgrass); rate 0.0156 kg/ha
  herbicidal rating ECHCG: 0.0
ECHCG (Barnyardgrass); rate 0.0313 kg/ha
  herbicidal rating ECHCG: 0.0
ECHCG (Barnyardgrass); rate 0.0625 kg/ha
  herbicidal rating ECHCG: 0.0
ECHCG (Barnyardgrass); rate 0.1250 kg/ha
  herbicidal rating ECHCG: 3.0
AMBEL (Ragweed, Common); rate 0.0156 kg/ha
  herbicidal rating AMBEL: 0.0
AMBEL (Ragweed, Common); rate 0.0313 kg/ha
  herbicidal rating AMBEL: 0.0
AMBEL (Ragweed, Common); rate 0.0625 kg/ha
  herbicidal rating AMBEL: 3.0
AMBEL (Ragweed, Common); rate 0.1250 kg/ha
  herbicidal rating AMBEL: 9.0

## Cn1c(C(F)(F)F)cc(=O)n(-c2cc(N=C3SCC(=O)N3C3CCOC3=O)c(Cl)cc2F)c1=O (stereo not drawn) [Compound 73]
GALAP (Galium) [1]; rate 0.0156 kg/ha
  Preemergence herbicidal rating GALAP: 0.0
GALAP (Galium) [1]; rate 0.0313 kg/ha
  Preemergence herbicidal rating GALAP: 0.0
GALAP (Galium) [1]; rate 0.0625 kg/ha
  Preemergence herbicidal rating GALAP: 0.0
GALAP (Galium) [1]; rate 0.1250 kg/ha
  Preemergence herbicidal rating GALAP: 4.0
GALAP (Galium) [1]; rate 0.2500 kg/ha
  Preemergence herbicidal rating GALAP: 9.0
CYPSE (Flatsedge) [2]; Rate 0.1250 kg/ha
  Herbicidal rating CYPSE: 2.0
CYPSE (Flatsedge) [2]; Rate 0.2500 kg/ha
  Herbicidal rating CYPSE: 4.0
CASOB (Sicklepod) [3]; rate 0.0158 kg/ha
  CASOB herbicidal rating: 1.0
CASOB (Sicklepod) [3]; rate 0.0315 kg/ha
  CASOB herbicidal rating: 7.0
CASOB (Sicklepod) [3]; rate 0.0630 kg/ha
  CASOB herbicidal rating: 7.0
CYPSE (Flatsedge) [4]; 0.1250 kg/ha
  CYPSE herbicidal effect rating: 2.0
CYPSE (Flatsedge) [4]; 0.2500 kg/ha
  CYPSE herbicidal effect rating: 4.0
CYPIR (Rice Flatsedge); 0.1250 kg/ha
  CYPIR herbicidal effect rating: 0.0
CYPIR (Rice Flatsedge); 0.2500 kg/ha
  CYPIR herbicidal effect rating: 6.0
[5]; rate 0.0158 kg/ha
  GLXMAW herbicidal rating: 6.0
[5]; rate 0.0315 kg/ha
  GLXMAW herbicidal rating: 5.5
[5]; rate 0.0630 kg/ha
  GLXMAW herbicidal rating: 7.5
ORYSAT (Rice, Tebonnet); rate 0.0158 kg/ha
  ORYSAT herbicidal rating: 2.5
ORYSAT (Rice, Tebonnet); rate 0.0315 kg/ha
  ORYSAT herbicidal rating: 3.0
ORYSAT (Rice, Tebonnet); rate 0.0630 kg/ha
  ORYSAT herbicidal rating: 4.0
GALAP (Galium) [6]; rate 0.0158 kg/ha
  GALAP herbicidal rating: 3.0
GALAP (Galium) [6]; rate 0.0315 kg/ha
  GALAP herbicidal rating: 7.0
GALAP (Galium) [6]; rate 0.0630 kg/ha
  GALAP herbicidal rating: 6.0
[7]; rate 0.0158 kg/ha
  CHEAL herbicidal rating: 4.0
[7]; rate 0.0315 kg/ha
  CHEAL herbicidal rating: 9.0
[7]; rate 0.0630 kg/ha
  CHEAL herbicidal rating: 9.0
SETVI (Foxtail, Green); rate 0.0158 kg/ha
  SETVI herbicidal rating: 1.0
SETVI (Foxtail, Green); rate 0.0315 kg/ha
  SETVI herbicidal rating: 2.0
SETVI (Foxtail, Green); rate 0.0630 kg/ha
  SETVI herbicidal rating: 7.0
ZEAMX (Corn, Field); rate 0.0156 kg/ha
  Preemergence herbicidal rating ZEAMX: 0.0
ZEAMX (Corn, Field); rate 0.0313 kg/ha
  Preemergence herbicidal rating ZEAMX: 0.0
ZEAMX (Corn, Field); rate 0.0625 kg/ha
  Preemergence herbicidal rating ZEAMX: 1.0
ZEAMX (Corn, Field); rate 0.1250 kg/ha
  Preemergence herbicidal rating ZEAMX: 4.0
ZEAMX (Corn, Field); rate 0.2500 kg/ha
  Preemergence herbicidal rating ZEAMX: 7.0
CASOB (Sicklepod) [8]; rate 0.0313 kg/ha
  Preemergence herbicidal rating CASOB: 0.0
CASOB (Sicklepod) [8]; rate 0.0625 kg/ha
  Preemergence herbicidal rating CASOB: 0.0
CASOB (Sicklepod) [8]; rate 0.1250 kg/ha
  Preemergence herbicidal rating CASOB: 1.0
CASOB (Sicklepod) [8]; rate 0.2500 kg/ha
  Preemergence herbicidal rating CASOB: 2.0
[9]; 0.1250 kg/ha
  SAGPY herbicidal effect rating: 3.0
[9]; 0.2500 kg/ha
  SAGPY herbicidal effect rating: 4.0
ECHCG (Barnyardgrass); rate 0.0158 kg/ha
  ECHCG herbicidal rating: 2.0
ECHCG (Barnyardgrass); rate 0.0315 kg/ha
  ECHCG herbicidal rating: 2.0
ECHCG (Barnyardgrass); rate 0.0630 kg/ha
  ECHCG herbicidal rating: 3.0
AMBEL (Ragweed, Common); rate 0.0158 kg/ha
  AMBEL herbicidal rating: 9.0
AMBEL (Ragweed, Common); rate 0.0315 kg/ha
  AMBEL herbicidal rating: 9.0
AMBEL (Ragweed, Common); rate 0.0630 kg/ha
  AMBEL herbicidal rating: 9.0
